Reference: patent US9321776B2, “Isochromene derivatives as phoshoinositide 3-kinases inhibitors” (CHIESI FARMACEUTICI S.p.A., priority 2013, dated 2016)
Where a name gives a salt, the structure may show the parent alone.

Experiments:
Assay in all cases: PI3K enzyme inhibitory activity in the cell free assay (ADP-Glo Kinase Assay)
Assay type in all cases: biochemical
PI3Kα = target: T1, PI3Kα (Homo sapiens, UniProt P42336); conditions: human recombinant PI3Kα, ATP 50 μM; read-out: PI3K alpha inhibition
T1 construct: purchased Millipore Ltd (Billerica, Mass.)

PI3Kβ = target: T2, PI3Kβ (Homo sapiens, UniProt P42338); conditions: human recombinant PI3Kβ, ATP 100 μM; read-out: PI3K beta inhibition
T2 construct: purchased Millipore Ltd (Billerica, Mass.)

PI3Kδ = target: T3, PI3Kδ (Homo sapiens, UniProt O00329); conditions: human recombinant PI3Kδ, ATP 80 μM; read-out: PI3K delta inhibition
T3 construct: purchased Millipore Ltd (Billerica, Mass.)
T3 sequence (O00329 1-1044): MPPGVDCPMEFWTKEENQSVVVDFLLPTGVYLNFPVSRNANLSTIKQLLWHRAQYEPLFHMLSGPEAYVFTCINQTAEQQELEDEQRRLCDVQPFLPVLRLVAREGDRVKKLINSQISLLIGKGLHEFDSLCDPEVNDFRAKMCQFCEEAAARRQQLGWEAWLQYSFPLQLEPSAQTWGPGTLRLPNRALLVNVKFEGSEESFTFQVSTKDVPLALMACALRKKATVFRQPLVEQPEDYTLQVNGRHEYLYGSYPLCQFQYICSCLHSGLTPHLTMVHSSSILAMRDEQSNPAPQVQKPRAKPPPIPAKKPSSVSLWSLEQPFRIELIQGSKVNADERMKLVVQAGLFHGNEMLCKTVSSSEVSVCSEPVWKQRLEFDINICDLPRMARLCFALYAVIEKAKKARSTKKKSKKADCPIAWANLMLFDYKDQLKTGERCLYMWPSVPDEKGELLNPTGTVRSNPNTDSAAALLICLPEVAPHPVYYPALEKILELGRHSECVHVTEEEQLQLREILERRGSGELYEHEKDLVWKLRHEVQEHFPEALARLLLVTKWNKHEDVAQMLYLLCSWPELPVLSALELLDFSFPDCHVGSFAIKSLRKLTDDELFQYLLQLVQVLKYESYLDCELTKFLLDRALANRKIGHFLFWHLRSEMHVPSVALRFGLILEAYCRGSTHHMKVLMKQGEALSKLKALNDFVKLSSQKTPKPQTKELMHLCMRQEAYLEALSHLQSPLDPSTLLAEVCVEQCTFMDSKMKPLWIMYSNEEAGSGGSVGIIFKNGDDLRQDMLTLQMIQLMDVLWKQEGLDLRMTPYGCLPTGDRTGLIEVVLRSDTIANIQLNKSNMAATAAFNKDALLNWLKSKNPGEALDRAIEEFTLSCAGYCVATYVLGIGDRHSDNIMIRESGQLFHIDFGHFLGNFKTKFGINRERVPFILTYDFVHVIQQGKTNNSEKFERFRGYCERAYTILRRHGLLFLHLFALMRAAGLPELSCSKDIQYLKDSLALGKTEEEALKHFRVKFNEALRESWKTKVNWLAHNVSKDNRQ

PI3Kγ = target: T4, PI3Kγ (Homo sapiens, UniProt P48736); conditions: human recombinant PI3Kγ, ATP 30 μM; read-out: PI3K gamma inhibition
T4 construct: purchased Millipore Ltd (Billerica, Mass.)
T4 sequence (P48736 whole entry): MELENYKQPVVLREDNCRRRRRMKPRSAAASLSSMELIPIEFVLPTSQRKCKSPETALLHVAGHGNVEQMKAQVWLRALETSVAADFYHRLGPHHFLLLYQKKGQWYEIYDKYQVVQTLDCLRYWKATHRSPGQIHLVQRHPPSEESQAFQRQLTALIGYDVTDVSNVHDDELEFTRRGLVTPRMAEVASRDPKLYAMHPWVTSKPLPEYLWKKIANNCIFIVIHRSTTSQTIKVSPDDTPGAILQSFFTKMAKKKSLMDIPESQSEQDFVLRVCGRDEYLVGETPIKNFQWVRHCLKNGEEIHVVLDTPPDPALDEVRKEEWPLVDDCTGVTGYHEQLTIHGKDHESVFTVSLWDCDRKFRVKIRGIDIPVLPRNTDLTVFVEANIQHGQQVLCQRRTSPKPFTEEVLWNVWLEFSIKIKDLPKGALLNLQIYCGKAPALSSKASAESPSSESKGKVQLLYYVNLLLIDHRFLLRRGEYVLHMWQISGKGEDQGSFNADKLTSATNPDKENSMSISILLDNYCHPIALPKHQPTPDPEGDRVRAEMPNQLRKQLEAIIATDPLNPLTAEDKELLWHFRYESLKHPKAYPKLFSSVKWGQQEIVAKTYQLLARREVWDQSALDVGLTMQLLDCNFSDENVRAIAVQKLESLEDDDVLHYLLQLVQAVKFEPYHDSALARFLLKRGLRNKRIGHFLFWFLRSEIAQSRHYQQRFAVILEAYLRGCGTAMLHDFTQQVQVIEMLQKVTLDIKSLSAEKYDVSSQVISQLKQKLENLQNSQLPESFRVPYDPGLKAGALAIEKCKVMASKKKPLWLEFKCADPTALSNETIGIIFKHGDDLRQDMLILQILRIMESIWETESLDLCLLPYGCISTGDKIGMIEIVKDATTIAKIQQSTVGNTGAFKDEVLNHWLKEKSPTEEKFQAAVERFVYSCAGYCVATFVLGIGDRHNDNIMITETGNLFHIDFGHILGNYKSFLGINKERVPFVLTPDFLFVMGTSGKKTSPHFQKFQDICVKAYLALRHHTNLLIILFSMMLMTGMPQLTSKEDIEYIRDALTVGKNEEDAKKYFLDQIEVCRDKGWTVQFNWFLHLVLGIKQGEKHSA

T1 sequence (P42336 whole entry): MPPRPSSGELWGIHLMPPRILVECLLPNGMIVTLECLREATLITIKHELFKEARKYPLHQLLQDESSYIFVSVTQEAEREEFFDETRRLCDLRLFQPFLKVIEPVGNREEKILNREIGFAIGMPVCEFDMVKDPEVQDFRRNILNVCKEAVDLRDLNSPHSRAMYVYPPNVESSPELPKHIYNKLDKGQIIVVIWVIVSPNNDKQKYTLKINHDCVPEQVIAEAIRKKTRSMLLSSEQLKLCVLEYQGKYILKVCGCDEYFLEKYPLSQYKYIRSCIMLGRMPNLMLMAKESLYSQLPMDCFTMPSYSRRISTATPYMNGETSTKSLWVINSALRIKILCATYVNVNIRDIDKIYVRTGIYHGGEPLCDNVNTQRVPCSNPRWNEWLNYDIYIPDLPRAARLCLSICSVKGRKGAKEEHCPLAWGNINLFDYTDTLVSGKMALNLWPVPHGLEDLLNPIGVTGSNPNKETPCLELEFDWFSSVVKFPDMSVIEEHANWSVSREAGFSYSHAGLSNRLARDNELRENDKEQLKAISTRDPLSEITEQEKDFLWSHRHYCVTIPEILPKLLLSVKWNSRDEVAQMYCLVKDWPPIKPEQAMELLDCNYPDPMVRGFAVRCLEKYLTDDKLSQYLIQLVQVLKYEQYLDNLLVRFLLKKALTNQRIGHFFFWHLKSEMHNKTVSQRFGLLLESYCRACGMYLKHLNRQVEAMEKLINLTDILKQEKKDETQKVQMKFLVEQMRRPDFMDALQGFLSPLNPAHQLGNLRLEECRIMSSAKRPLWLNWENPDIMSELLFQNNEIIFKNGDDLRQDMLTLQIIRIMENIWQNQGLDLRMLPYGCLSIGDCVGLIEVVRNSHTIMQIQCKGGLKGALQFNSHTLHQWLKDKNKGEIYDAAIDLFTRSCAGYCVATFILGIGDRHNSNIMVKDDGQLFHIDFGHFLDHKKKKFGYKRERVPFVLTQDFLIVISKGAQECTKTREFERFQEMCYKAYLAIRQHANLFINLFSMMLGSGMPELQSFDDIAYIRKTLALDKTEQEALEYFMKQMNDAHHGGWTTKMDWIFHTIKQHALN
T2 sequence (P42338 whole entry): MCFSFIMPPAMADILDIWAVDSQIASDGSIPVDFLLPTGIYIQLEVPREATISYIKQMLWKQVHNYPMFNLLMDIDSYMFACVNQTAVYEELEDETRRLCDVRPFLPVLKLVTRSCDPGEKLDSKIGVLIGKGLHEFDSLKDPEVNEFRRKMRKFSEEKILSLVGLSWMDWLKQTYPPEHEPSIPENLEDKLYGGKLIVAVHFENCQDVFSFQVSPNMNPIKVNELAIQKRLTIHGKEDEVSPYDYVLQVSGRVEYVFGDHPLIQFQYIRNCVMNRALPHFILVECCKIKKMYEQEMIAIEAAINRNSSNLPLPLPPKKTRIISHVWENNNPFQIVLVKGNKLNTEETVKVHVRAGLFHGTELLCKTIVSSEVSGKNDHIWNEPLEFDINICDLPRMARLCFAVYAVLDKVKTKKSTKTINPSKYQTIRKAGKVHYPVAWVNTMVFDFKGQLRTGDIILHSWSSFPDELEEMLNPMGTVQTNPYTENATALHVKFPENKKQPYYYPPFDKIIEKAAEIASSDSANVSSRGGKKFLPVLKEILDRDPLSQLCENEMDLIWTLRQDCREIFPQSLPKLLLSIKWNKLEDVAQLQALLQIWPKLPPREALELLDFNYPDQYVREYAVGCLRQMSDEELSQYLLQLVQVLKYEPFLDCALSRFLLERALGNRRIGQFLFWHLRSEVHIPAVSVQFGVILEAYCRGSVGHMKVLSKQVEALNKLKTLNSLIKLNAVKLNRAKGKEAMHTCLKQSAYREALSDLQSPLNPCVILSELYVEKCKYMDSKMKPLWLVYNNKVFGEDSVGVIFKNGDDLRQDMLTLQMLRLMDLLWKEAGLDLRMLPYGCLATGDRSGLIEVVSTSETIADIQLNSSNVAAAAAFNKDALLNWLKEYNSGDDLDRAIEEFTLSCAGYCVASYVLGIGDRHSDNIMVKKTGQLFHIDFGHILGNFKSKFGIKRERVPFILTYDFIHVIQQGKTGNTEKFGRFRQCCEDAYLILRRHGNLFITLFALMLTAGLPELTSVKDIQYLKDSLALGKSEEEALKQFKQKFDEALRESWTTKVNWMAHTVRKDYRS

IC50 (PI3Kα) [nM] | IC50 (PI3Kβ) [nM] | IC50 (PI3Kδ) [nM] | IC50 (PI3Kγ) [nM] | SMILES
> 1000 | 10 to 1000 | < 10 | 10 to 1000 | CC(c1oc(=O)c2ccc(F)cc2c1-c1ccccc1)n1nc(-c2cc(O)cc(F)c2)c2c(N)ncnc21 (stereo not shown) [Example 165, 3-(1-(4-amino-3-(3-fluoro-5-hydroxyphenyl)-1H-pyrazolo[3,4-d]pyrimidin-1-yl)ethyl)-6-fluoro-4-phenyl-1H-isochromen-1-one]
> 1000 | 10 to 1000 | < 10 | 10 to 1000 | CC(c1oc(=O)c2ccccc2c1C1=CCN(C2CNC2)CC1)n1nc(-c2cc(O)cc(F)c2)c2c(N)ncnc21 (stereo not shown) [Example 156, 3-(1-(4-amino-3-(3-fluoro-5-hydroxyphenyl)-1H-pyrazolo[3,4-d]pyrimidin-1-yl)ethyl)-4-(1-(azetidin-3-yl)-1,2,3,6-tetrahydropyridin-4-yl)-1H-isochromen-1-one dihydrochloride]
10 to 1000 | 10 to 1000 | < 10 | 10 to 1000 | CC(c1oc(=O)c2ccccc2c1C1=CCCN(C2CNC2)C1)n1nc(-c2cc(O)cc(F)c2)c2c(N)ncnc21 (stereo not shown) [Example 173, 3-(1-(4-amino-3-(3-fluoro-5-hydroxyphenyl)-1H-pyrazolo[3,4-d]pyrimidin-1-yl)ethyl)-4-(1-(azetidin-3-yl)-1,2,5,6-tetrahydropyridin-3-yl)-1H-isochromen-1-one dihydrochloride]

Continued, molecule first:

SMILES | IC50 (PI3Kα) [nM] | IC50 (PI3Kβ) [nM] | IC50 (PI3Kδ) [nM] | IC50 (PI3Kγ) [nM]
CC(c1oc(=O)c2ccccc2c1C1=CCN(C(=O)CCCN(C)C)CC1)n1nc(-c2cc(O)cc(F)c2)c2c(N)ncnc21 (stereo not shown) [Example 146, 3-(1-(4-amino-3-(3-fluoro-5-hydroxyphenyl)-1H-pyrazolo[3,4-d]pyrimidin-1-yl)ethyl)-4-(1-(4-(dimethylamino)butanoyl)-1,2,3,6-tetrahydropyridin-4-yl)-1H-isochromen-1-one formate] | > 1000 | 10 to 1000 | < 10 | 10 to 1000
CC(NC(=O)c1c(N)nn2cccnc12)c1oc(=O)c2ccccc2c1-c1ccccc1 (stereo not shown) [Example 110, 2-amino-N-(1-(1-oxo-4-phenyl-1H-isochromen-3-yl)ethyl)pyrazolo[1,5-a]pyrimidine-3-carboxamide] | 10 to 1000 | 10 to 1000 | 10 to 1000 | 10 to 1000
CC(c1oc(=O)c2ccccc2c1C1=CCN(C(=O)C2CCN(C)CC2)CC1)n1nc(-c2cc(O)cc(F)c2)c2c(N)ncnc21 (stereo not shown) [Example 148, 3-(1-(4-amino-3-(3-fluoro-5-hydroxyphenyl)-1H-pyrazolo[3,4-d]pyrimidin-1-yl)ethyl)-4-(1-(1-methylpiperidine-4-carbonyl)-1,2,3,6-tetrahydropyridin-4-yl)-1H-isochromen-1-one formate] | > 1000 | 10 to 1000 | < 10 | 10 to 1000
CC(c1oc(=O)c2ccccc2c1-c1ccc(CCCN(C)C)cc1)n1nc(-c2cc(O)cc(F)c2)c2c(N)ncnc21 (single isomer, unassigned) [Example 138b, 3-(1-(4-amino-3-(3-fluoro-5-hydroxyphenyl)-1H-pyrazolo[3,4-d]pyrimidin-1-yl)ethyl)-4-(4-(3-(dimethylamino)propyl)phenyl)-1H-isochromen-1-one single enantiomers] | > 1000 | > 1000 | < 10 | 10 to 1000
